Experimental data reported in PMC3152630 (Pharmaceutical research, 2011).

Test system: diabetic rats (blood glucose level, BGL)
Test: BGL pharmacodynamics after insulin administration to diabetic rats
Type: in vivo, rat
Details: bolus subcutaneous injection of 0.1 U insulin, unbalanced ANOVA, P < 0.001

Insulin
reduction in BGL compared to untreated controls: significant reduction in BGL
